Columns and labels:
rats = assay: Intraperitoneally administered ANP in peritoneal dialysis solution, transport characteristics in rats, 4 hour dwell; format: in vivo, rat
Experimental: A first experiment was performed to assess the effect of intraperitoneal administered ANP on peritoneal dialysis transport characteristics in rats. In this study, a dose of 9 μg ANP/kg BW of rat was mixed in a base solution of 2.5% dextrose DIANEAL® solution. The rats were injected with 90 ml/kg BW of either the above solution with the ANP additive or an unaltered control DIANEAL® solution.
Blood samples were taken before and after the 4 hour dwell period. Dialysate samples were collected at the start of the dwell and every 2 hours thereafter. All samples were analyzed for urea nitrogen (UN), sodium (Na), glucose, protein (prtn), and osmolality (Osm). At the end of the 4 hour dwell period, the rats were sacrificed, the abdominal walls excised, and the effluents collected and weighed.
To prepare the above ANP solution, 250 cc of DIANEAL® PD-2 solution was transferred into a 250 ml empty bag (VIAFLEX®). 10 cc of DIANEAL® PD-2 solution was injected into a vial containing […] of ANF (atrial natriuretic factor--yANF,rat,28AA sold by Peninsula Laboratories, Inc.). 1.25 cc of the DIANEAL®/ANF solution was then withdrawn with a needle and syringe and injected into the 250 ml bag containing the DIANEAL® base solution through a 0.22 μm sterile filter. The bag was then enclosed with a sampling site coupler. The control solution was similarly transferred into a new 250 ml bag (VIAFLEX®) and enclosed with a sampling site coupler.

sheep = assay: ANP in 4.25% dextrose DIANEAL peritoneal dialysis solution in conscious sheep, 6 hour dwell; format: in vivo; conditions: mean, n = 5
Experimental: In a second experiment performed on sheep, ANP was added to a 4.25% dextrose DIANEAL® solution to provide a final concentration of ANP in the solution of […]. The dialysis solution was then infused into the peritoneal cavity of the sheep in 50 ml/kg BW volumes. The dwell time periods were 6 hours; the sheep remained conscious.
wherein pl. vol. is plasma volume; Vo is the volume of the peritoneal cavity before the commencement of the dialysis; V6 is the volume of the peritoneal cavity after six hours; LFR is lymph flow rate; Bl. rec. is blood recovery; and PC rec. is peritoneal cavity recovery.

[1] = ANP as additive versus control DIANEAL solution, Table 1 and FIGS. 1 and 2
[2] = rat, protein, 9 μg ANP/kg BW, 4 hour, mean ± SD
[3] = rat, urea nitrogen, 9 μg ANP/kg BW, 4 hour, mean ± SD
[4] = ANP 1×10^31 7 M in 4.25% dextrose DIANEAL

atrial natriuretic peptide [ANP]
effect on net ultrafiltration (in words) (rats; [1]): increases
effect on sodium clearance (in words) (rats; [1]): increases
nUF (net ultrafiltration) (rats; rat, 9 μg ANP/kg BW in 2.5% dextrose DIANEAL, 90 ml/kg BW i.p., 4 hour dwell, mean ± SD): 8.17 ± 0.52 mL
Osm (osmolality) (rats; rat, 9 μg ANP/kg BW in 2.5% dextrose DIANEAL, 4 hour sample, mean ± SD): 308.0 ± 3.5 mOsm/kg
D/D0 (glucose) (rats; rat, glucose, 9 μg ANP/kg BW, 4 hour, mean ± SD): 0.363 ± 0.024
Clearance (prtn) (rats; [2]): 1.379 ± 0.117 µL/min
D/P (prtn) (rats; [2]): 0.0106 ± 0.0009
Clearance (Na) (rats; rat, sodium, 9 μg ANP/kg BW, 4 hour, mean ± SD): 0.1110 ± 0.0027 mL/min
Clearance (UN) (rats; [3]): 0.106 ± 0.005 mL/min
D/P (UN) (rats; [3]): 0.81 ± 0.04
Fl. loss (sheep; [4]): 13.39 mL/kg
LFR (lymph flow rate) (sheep; [4]): 6.45 mL/kg
NUF (net ultra filtration) (sheep; [4]): 22.05 mL/kg
PC rec. (peritoneal cavity recovery) (sheep; [4]): 82.12%
Total rec. (sheep; [4]): 93.81%
V6 (volume of the peritoneal cavity after six hours) (sheep; [4]): 0.07246 L/kg
pl. vol. (plasma volume) (sheep; ANP in 4.25% dextrose DIANEAL, 50 ml/kg BW): 52.70 mL/kg
Bl. rec. (blood recovery) (sheep; ANP in 4.25% dextrose DIANEAL): 11.69%
